Consider two compounds from ChEMBL document CHEMBL1147165, “Synthesis and alpha(1)-adrenoceptor antagonist activity of derivatives and isosters of the furan portion of (+)-cyclazosin” (Bioorg Med Chem, 2007).

The species named for one experiment is Homo sapiens. As to the kind of experiment: Selectivity ratio of pKi for human adrenergic alpha-1d receptor to pKi for human adrenergic alpha-1b receptor.
In experiment [1] the target is Alpha adrenergic receptor 1A and 1B (Rattus norvegicus) (UniProt P15823+P43140). As to the kind of experiment: Selectivity ratio for rat adrenergic alpha-1A receptor over rat adrenergic Alpha-1B receptor. It counts as functional.
Experiment [2] concerns the target T1, Alpha-1B adrenergic receptor (Rattus norvegicus, UniProt P15823).
T1 sequence (P15823 whole entry): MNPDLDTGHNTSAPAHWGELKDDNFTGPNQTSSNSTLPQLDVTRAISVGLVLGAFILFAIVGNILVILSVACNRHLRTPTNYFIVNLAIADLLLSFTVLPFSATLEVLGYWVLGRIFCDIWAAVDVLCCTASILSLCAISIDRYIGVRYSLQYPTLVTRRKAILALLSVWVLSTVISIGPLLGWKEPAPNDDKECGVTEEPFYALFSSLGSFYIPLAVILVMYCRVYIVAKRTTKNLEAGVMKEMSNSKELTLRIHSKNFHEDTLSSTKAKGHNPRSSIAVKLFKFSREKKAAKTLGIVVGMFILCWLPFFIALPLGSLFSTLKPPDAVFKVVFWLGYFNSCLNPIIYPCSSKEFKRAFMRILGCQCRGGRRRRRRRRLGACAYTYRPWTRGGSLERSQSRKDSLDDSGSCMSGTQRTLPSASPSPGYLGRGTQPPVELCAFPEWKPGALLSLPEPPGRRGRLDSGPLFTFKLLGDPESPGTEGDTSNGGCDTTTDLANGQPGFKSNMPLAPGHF
As to the kind of experiment: (§1) Antagonist activity against adrenergic Alpha-1B receptor in rat spleen assessed as inhibition of phenylephrine-induced response. It counts as functional, tissue-based. The conditions noted are these: read-out: pA2 (converted).

Experiment [3] has as its target Alpha adrenergic receptor 1A and 1D (Rattus norvegicus) (UniProt P23944+P43140). Nature of the experiment: Selectivity ratio for rat adrenergic alpha-1A receptor over rat adrenergic Alpha-1D receptor. It counts as functional.
The species entered for another experiment is Rattus norvegicus. As to the kind of experiment: Selectivity ratio for rat adrenergic Alpha-1D receptor over rat adrenergic Alpha-1B receptor. It counts as functional.
Experiment [4] deals with T2, Alpha-1A adrenergic receptor (Homo sapiens, UniProt P35348).
T2 sequence (P35348 whole entry): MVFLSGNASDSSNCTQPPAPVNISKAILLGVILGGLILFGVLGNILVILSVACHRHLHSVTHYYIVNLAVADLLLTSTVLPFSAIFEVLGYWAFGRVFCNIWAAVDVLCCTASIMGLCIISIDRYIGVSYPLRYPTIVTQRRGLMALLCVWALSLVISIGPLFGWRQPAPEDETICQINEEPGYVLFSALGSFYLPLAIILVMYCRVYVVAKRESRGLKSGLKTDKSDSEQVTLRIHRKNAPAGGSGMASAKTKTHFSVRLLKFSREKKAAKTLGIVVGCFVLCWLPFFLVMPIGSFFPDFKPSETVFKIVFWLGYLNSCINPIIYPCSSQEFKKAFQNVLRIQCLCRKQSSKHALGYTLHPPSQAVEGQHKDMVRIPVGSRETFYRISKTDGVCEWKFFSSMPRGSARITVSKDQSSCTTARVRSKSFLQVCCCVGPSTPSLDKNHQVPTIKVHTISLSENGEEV
Nature of the experiment: Displacement of [3H]prazosin from human adrenergic alpha-1a receptor expressed in CHO cells. In kind it is cell-based. In general terms: In a radioligand displacement assay an active substance lowers the binding of a labelled ligand.

The target of experiment [5] is T3, Alpha-1D adrenergic receptor (Rattus norvegicus, UniProt P23944).
T3 sequence (P23944 whole entry): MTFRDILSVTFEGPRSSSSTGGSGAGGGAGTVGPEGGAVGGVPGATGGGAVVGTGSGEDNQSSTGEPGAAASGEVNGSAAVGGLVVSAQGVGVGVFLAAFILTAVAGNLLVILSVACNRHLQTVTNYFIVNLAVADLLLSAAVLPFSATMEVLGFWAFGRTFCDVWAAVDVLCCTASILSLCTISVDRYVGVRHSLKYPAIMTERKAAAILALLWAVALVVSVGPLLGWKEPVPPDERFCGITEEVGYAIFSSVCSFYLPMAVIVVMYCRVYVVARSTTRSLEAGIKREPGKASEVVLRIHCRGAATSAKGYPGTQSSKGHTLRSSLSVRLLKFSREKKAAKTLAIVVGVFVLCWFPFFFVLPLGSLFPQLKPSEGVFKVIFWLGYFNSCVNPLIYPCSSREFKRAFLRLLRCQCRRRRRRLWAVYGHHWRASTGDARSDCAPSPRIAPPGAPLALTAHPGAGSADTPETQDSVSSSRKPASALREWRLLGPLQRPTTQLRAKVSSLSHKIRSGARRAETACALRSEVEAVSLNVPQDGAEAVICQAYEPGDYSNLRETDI
Nature of the experiment: (§2) Antagonist activity against adrenergic Alpha-1D receptor in rat thoracic aorta assessed as noradrenaline-induced response. It counts as functional, tissue-based. To be noted: read-out: pA2 (converted).

In experiment [6] the target is Adrenergic receptors; alpha-1 A & B (Homo sapiens) (UniProt P35348+P35368). Nature of the experiment: Selectivity ratio of pKi for human adrenergic alpha-1a receptor to pKi for human adrenergic alpha-1b receptor. In kind it is protein assay.
Experiment [7] deals with T4, Alpha-1D adrenergic receptor (Homo sapiens, UniProt P25100).
T4 sequence (P25100 whole entry): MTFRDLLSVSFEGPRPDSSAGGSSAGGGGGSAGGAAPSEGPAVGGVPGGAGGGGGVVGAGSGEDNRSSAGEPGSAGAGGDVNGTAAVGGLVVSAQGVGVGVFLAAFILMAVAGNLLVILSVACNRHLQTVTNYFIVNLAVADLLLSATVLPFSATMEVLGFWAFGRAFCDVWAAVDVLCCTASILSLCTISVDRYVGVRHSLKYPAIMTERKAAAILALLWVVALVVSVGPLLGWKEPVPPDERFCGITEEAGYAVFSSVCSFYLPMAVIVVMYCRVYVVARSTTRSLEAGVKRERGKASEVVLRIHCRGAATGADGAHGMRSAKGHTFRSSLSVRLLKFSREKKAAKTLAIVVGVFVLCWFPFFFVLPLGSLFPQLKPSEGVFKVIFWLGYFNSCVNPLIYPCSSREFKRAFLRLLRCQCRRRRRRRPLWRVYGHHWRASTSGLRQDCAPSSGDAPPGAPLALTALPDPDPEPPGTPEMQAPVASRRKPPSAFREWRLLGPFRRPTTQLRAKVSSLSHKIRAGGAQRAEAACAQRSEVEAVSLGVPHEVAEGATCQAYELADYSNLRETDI
Nature of the experiment: Displacement of [3H]prazosin from human adrenergic alpha-1d receptor expressed in CHO cells. It counts as cell-based.

Experiment [8] has as its target T5, Alpha-1A adrenergic receptor (Rattus norvegicus, UniProt P43140).
T5 sequence (P43140 whole entry): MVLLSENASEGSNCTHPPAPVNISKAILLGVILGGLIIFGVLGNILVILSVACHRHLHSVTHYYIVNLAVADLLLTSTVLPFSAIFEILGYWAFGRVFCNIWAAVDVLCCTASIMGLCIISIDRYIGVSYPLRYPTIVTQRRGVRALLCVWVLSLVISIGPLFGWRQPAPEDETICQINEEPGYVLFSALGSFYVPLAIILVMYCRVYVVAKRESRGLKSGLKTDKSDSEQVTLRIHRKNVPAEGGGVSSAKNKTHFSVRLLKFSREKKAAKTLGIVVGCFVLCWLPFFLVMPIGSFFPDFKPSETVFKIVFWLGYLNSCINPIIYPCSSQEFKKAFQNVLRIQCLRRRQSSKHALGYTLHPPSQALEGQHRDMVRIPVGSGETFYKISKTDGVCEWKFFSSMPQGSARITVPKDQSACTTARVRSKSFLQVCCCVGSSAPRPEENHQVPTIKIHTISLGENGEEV
As to the kind of experiment: Antagonist activity against adrenergic alpha-1A receptor in rat prostatic vas deferens assessed as inhibition of noradrenaline-induced contraction. It counts as functional, tissue-based. To be noted: read-out: pA2 (converted).

The target in experiment [9] is T6, Alpha-1B adrenergic receptor (Homo sapiens, UniProt P35368).
T6 sequence (P35368 whole entry): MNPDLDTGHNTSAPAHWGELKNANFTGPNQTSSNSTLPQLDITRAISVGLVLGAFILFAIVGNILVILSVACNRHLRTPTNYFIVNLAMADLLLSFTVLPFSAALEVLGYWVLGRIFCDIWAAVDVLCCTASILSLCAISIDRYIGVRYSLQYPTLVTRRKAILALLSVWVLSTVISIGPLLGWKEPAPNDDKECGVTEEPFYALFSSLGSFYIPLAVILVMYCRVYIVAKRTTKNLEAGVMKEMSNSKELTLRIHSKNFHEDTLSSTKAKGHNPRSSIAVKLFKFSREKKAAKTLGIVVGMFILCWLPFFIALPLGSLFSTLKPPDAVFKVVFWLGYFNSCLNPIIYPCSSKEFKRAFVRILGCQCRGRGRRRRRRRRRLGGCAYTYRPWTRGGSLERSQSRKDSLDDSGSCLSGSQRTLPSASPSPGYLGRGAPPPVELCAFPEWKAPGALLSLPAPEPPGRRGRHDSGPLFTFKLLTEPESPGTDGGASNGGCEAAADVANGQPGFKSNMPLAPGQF
As to the kind of experiment: Displacement of [3H]prazosin from human adrenergic alpha-1b receptor expressed in CHO cells. In kind it is cell-based.

The target of experiment [10] is Alpha adrenergic receptor (1a and 1d) (Homo sapiens) (UniProt P35348+P25100). Nature of the experiment: Selectivity ratio of pKi for human adrenergic alpha-1a receptor to pKi for human adrenergic alpha1d receptor. In kind it is protein assay.
The target in experiment [11] is T7, Alpha-1B adrenergic receptor (Rattus norvegicus) (UniProt P15823).
T7 sequence (whole entry): T1 sequence (P15823 whole entry)
The description is as §1. In kind it is functional, tissue-based.

Experiment [12] concerns the target T8, Alpha-1D adrenergic receptor (Rattus norvegicus) (UniProt P23944).
T8 sequence (whole entry): T3 sequence (P23944 whole entry)
The experiment is described as §2. In kind it is functional, tissue-based.

Structures are written as SMILES.

For orientation: Ki means a measure of affinity in units of concentration, obtained from inhibition or displacement. Consider `COc1cc2nc(N3CCN(C(=O)c4ccc(C)o4)[C@H]4CCCC[C@H]43)nc(N)c2cc1OC`, for which the Selectivity ratio in the experiment filed under Homo sapiens is 6; in experiment [1], 148; in experiment [3], 4; in the experiment listed under Rattus norvegicus, 41; in experiment [6] it was 27; in experiment [10], 5. Moreover, the Kb in experiment [2] is 2.24 nM; in experiment [5], 91.2 nM; in [8], 331 nM. In addition, the results for the Ki in experiment [4], in experiment [7] and in experiment [9] were 23.4 nM, 4.79 nM and 0.871 nM, respectively.
By pKb is commonly meant −log10 of the Kb, conventionally taken in molar units. In the case of `COc1cc2nc(N3CCN(C(=O)c4ccccc4)[C@H]4CCCC[C@H]43)nc(N)c2cc1OC`, the Selectivity ratio in the experiment listed under Homo sapiens turned out to be 7; in experiment [1], 21; in experiment [3], 2; in the experiment filed under Rattus norvegicus it was 12; in [6], 8.5; in experiment [10], 1. Also, the pKb was 8.83 in experiment [11] and 7.76 in experiment [12]. Further, the figures for the Ki in experiment [4], in experiment [7] and in experiment [9] were 4.17 nM, 3.24 nM and 0.49 nM, respectively. The Kb in experiment [8] is 30.9 nM.
